Source: paper PMC6691786, “In vitro anticancer potentiality and molecular modelling study of novel amino acid derivatives based on N^1,N^3-bis-(1-hydrazinyl-1-oxopropan-2-yl) isophthalamide” (Journal of Enzyme Inhibition and Medicinal Chemistry, 2019)
Entries after “also recorded” stand apart in the source; their conditions may differ. Each block holds one molecule with its values, some of them ahead of it.

Columns and labels:
[1] = test system: HCT-116, A-549 and MCF-7 cell lines; assay: Preliminary cytotoxicity screen on the three tumour cell lines (MTT); format: cell-based, human; settings: for inhibition at 100 µM: Homo sapiens, range over HCT-116, A-549, MCF-7, read-out: % of inhibition towards the three tested cancer cell lines; for cytotoxic activity (in words, SAR): HCT-116, A-549, MCF-7, compared with related derivatives
Protocol: (§1) Human colon carcinoma (HCT-116 cell line), human lung carcinoma (A-549), human breast carcinoma (MCF-7 cell line) and human skin normal cell line (BJ-1) were obtained from Karolinska Center, Department of Oncology and Pathology, Karolinska Institute and Hospital, Stockholm, Sweden. IC50 values were performed using SPSS computer program (SPSS for windows, statistical analysis software package/version 9/1989 SPSS Inc., Chicago, IL).
(§2) The procedure was done in laminar air flow cabinet bio safety class II level. Culturing and sub culturing were carried out according to Thabrew et al.[32]. Doxorubicin was used as a positive control. DMSO used as negative control. Cell Viability Assay was done according to Selim et al.[33] as described by Mosmann et al.[34]. The cells were seeded at concentration of 10 × 10^3 cells per well in case of MCF-7, 20 × 10^3 cells/well in case of HCT-116 cell lines using 96-well plates at 37 °C. After 48-h incubation, the medium was aspirated and 40 μl MTT salt (2.5 mg/ml) were added and further incubated for 4 h. About 200 μl 10% sodium dodecyl sulphate (SDS) was added. The absorbance was measured at 595 nm.

A-549 cell line = assay: MTT cytotoxicity assay, lung carcinoma; format: cell-based; settings: Homo sapiens, A549; for inhibition at 100 µM: A-549, at 100 µM
Protocol: as §1, §2

MCF-7 cell line = assay: MTT cytotoxicity assay, breast carcinoma; format: cell-based; settings: Homo sapiens, MCF7; for inhibition at 100 µM: MCF-7, at 100 µM
Protocol: as §1, §2

CASP-7 = assay: Human caspase-7 (CASP-7) estimation ELISA in MCF-7 cells; format: cell-based
Protocol: The micro ELISA plate provided in this kit pre-coated with CASP7-specific antibody. A biotinylated CASP7 antibody and Avidin–HRP conjugate was added. Aspire the excess components. The substrate solution was added wells that contain CASP7, biotinylated detection antibody and Avidin–HRP conjugate will appear blue in colour. The colour turns yellow followed the addition of sulphuric acid solution. The optical density (OD) was measured at a wavelength of 450 nm ± 2 nm[38].

HCT-116 cell line = assay: MTT cytotoxicity assay, colon carcinoma; format: cell-based; settings: Homo sapiens; for IC50: HCT-116, MTT, 48-h incubation, read-out: IC50 (mean ± SD); for inhibition at 100 µM: HCT-116, at 100 µM
Protocol: as §1, §2

BCL-2 = BCL-2 level ELISA in MCF-7 cells; format: cell-based, human; settings: compound at IC50 for 24 h, compared to control
Protocol: BCL-2 in the samples and standards were estimated according to Barbareschi et al.. A biotin-conjugated antibody was added followed by streptavidin-HRP. The reaction is then terminated by addition of acid and absorbance was measured at 450 nm.

tubulin beta (TUBb) = assay: ELISA kit for tubulin beta (TUBb) in MCF-7 cells; format: cell-based, human; settings: in comparison with colchicine
Protocol: MCF-7 cells were inoculated at concentration 1.2–1.8 × 10,000 cells/well using DMEM (supplemented with 10% FBS and 1% penicillin–streptomycin). Tested compound added for 18–24 h before the enzyme assay for Tubulin. Avidin conjugated to HRP is added to each microplate well and incubated. […] Sulphuric acid solution added to terminate enzymatic reaction. Colour change is measured spectrophotometrically at a wavelength of 450 nm ± 10 nm[39].

c-kit = c-kit (Homo sapiens, UniProt P10721); assay: In vitro kinase inhibition ELISA assay; format: biochemical; settings: read-out: IC50 (mean ± SD)
[2] = test system: BJ-1 normal skin fibroblasts cell line; assay: MTT cytotoxicity on normal skin cell line; format: cell-based, human; settings: BJ-1 normal skin cells, at 100 µM
Protocol: as §1, §2

p53 = p53 level ELISA in MCF-7 cells; format: cell-based, human; settings: compound at IC50 for 24 h, compared to control
Protocol: Human p53 present in the sample or standard binds to antibodies adsorbed to the microwells. A biotin-conjugated is added. After incubation and dispense of unbound biotin-conjugated streptavidin HRP is added. The reaction is terminated by addition of acid and absorbance is measured at 450 nm[37].

CDK-2 = CDK-2 (Homo sapiens, UniProt P24941); assay: In vitro kinase inhibition ELISA assay; format: biochemical; settings: CDK-2 kinase, read-out: IC50 (mean ± SD)
Bax = Bax protein level ELISA in MCF-7 cells; format: cell-based, human; settings: compound at IC50 for 24 h
Protocol: Bax protein levels were evaluated according to Onur et al.. Monoclonal antibody specific to Bax captured on the plate is added. After incubation, Strep avid in conjugated to Horseradish peroxidase (HRP) is added. The reaction is terminated by the addition of acid and optical density of the colour produced measured at 450 nm.

EGFR = EGFR (Homo sapiens, UniProt P00533); assay: In vitro kinase inhibition ELISA assay; format: biochemical; settings: read-out: IC50 (mean ± SD)
Protocol: The in vitro enzyme inhibition assessment for compound 5 was performed at confirmatory diagnostic unit, Vacsera, Egypt.

VEGFR-2 = VEGFR-2 (Homo sapiens, UniProt P35968); assay: In vitro kinase inhibition ELISA assay; format: biochemical; settings: VEGFR-2 kinase, read-out: IC50 (mean ± SD)
MCF-7 cells = assay: DNA fragmentation by DPA assay; format: cell-based, human
Protocol: DNA fragmentation of the cells was assayed, as previously described[40]^,[41]. Briefly, the cells were lysed with 20 mM EDTA, 0.5% (v/v) Triton X-100, and […] Tris (pH 8.0) for 15 min on ice. The cells were then centrifuged for 20 min, at 27,000×g, to separate intact chromatin from DNA fragments. The amount of DNA was measured by using a diphenylamine reagent. The optical density is measured at 600 nm.

Chain of VEGFR-2 (P35968 20-1356): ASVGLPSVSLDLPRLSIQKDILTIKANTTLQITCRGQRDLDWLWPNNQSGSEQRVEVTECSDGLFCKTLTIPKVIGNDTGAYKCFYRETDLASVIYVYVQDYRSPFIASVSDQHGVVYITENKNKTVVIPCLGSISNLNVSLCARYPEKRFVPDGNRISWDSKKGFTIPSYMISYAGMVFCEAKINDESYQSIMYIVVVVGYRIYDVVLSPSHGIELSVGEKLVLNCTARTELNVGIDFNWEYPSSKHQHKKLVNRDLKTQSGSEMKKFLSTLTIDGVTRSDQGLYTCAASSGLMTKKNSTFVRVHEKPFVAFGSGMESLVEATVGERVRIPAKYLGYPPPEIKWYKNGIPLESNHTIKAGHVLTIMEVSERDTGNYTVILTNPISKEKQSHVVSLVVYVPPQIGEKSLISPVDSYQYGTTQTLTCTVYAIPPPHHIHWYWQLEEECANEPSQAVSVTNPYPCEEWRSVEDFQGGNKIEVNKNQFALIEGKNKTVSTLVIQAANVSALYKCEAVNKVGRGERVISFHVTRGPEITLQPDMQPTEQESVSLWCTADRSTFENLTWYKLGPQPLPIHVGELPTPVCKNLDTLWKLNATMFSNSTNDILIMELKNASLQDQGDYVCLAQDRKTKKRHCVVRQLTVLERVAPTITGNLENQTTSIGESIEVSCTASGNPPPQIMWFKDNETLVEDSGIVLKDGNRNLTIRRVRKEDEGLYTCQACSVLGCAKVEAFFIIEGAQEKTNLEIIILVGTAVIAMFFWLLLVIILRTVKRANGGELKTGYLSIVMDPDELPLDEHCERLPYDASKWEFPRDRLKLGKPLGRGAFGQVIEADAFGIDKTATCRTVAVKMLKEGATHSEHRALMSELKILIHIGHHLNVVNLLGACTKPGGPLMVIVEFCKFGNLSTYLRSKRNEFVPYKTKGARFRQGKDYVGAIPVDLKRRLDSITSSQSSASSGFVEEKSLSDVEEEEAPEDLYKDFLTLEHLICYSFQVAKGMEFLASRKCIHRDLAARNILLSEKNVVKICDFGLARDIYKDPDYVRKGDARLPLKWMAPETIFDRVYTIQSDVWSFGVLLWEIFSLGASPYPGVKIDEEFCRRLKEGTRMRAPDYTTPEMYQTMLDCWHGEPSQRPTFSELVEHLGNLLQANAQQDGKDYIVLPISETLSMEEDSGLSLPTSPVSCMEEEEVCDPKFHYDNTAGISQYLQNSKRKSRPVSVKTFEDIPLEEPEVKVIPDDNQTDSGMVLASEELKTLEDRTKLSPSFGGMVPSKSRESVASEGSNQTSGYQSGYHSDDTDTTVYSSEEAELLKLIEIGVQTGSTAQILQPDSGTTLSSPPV
Chain of c-kit (P10721 26-976): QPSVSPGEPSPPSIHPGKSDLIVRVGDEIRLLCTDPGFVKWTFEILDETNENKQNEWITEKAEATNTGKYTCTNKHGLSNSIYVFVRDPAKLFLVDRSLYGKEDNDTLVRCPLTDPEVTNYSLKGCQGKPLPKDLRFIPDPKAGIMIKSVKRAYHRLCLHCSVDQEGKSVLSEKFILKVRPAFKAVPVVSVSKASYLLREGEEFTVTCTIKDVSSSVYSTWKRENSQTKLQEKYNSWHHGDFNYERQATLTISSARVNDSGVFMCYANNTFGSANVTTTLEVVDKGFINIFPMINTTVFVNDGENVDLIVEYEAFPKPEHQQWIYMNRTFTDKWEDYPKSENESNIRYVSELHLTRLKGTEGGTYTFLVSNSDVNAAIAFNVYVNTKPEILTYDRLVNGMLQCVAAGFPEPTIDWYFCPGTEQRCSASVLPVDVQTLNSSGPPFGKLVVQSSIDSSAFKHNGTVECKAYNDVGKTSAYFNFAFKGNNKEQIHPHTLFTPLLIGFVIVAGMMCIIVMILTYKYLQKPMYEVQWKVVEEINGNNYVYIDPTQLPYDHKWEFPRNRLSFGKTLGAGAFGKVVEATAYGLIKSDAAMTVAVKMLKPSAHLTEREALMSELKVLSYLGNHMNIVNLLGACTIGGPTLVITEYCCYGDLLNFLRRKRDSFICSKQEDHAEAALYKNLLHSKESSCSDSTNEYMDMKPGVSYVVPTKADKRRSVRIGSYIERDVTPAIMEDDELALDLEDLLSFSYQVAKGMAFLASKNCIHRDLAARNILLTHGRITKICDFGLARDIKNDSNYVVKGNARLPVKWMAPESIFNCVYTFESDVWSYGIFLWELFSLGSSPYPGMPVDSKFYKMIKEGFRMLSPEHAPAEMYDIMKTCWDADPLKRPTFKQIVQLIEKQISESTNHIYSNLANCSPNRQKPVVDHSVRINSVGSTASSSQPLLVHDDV
Chain of EGFR (P00533 25-1210): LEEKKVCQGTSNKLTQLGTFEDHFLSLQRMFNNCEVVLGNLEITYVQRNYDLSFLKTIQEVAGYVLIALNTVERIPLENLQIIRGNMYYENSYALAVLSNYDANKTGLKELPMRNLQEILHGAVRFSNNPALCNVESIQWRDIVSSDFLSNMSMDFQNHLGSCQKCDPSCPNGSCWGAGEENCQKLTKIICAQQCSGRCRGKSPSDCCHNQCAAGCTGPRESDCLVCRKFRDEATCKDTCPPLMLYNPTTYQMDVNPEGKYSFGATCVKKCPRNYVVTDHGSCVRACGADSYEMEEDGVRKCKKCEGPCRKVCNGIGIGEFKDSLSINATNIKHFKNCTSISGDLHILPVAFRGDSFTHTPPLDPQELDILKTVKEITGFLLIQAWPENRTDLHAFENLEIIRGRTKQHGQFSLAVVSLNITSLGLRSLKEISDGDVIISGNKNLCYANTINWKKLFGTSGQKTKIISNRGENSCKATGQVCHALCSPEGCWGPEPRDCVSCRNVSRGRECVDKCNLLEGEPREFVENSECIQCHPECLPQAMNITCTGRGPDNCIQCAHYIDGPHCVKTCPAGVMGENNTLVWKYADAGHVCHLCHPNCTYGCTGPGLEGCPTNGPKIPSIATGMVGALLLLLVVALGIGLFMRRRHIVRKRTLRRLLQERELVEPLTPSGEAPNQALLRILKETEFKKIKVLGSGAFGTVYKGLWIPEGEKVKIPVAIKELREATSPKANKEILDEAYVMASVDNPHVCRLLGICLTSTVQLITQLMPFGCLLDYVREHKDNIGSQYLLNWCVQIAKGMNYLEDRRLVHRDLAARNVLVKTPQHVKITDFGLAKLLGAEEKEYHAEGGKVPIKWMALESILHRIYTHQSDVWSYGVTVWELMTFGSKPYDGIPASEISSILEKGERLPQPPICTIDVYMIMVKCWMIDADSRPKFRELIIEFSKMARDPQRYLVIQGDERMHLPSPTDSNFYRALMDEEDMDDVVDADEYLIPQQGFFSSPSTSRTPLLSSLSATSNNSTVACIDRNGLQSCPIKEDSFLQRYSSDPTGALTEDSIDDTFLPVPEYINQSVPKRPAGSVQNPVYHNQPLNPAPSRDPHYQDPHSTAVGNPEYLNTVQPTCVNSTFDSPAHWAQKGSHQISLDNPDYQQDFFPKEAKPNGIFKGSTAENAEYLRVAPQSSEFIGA

- melting point: 218 to 220 °C
SMILES: CC(NC(=O)c1cccc(C(=O)NC(C)C(=O)NN2C(=O)CSC2c2ccc(Cl)cc2)c1)C(=O)NN1C(=O)CSC1c1ccc(Cl)cc1 (centres unmarked) [Compound 14, N^1,N^3-bis-(1-(2-(4-chlorophenyl)-4-oxothiazolidin-3-ylamino)-1-oxopropan-2-yl) isophthalamide]
- inhibition at 100 µM [1]: 72.5 to 98.3%
- IC50 (A-549 cell line; A-549, MTT, read-out: IC50 (mean ± SD)): 41 nM

- melting point: 277 to 279 °C
SMILES: COc1ccc(C=NNC(=O)C(C)NC(=O)c2cccc(C(=O)NC(C)C(=O)NN=Cc3ccc(OC)c(OC)c3)c2)cc1OC (centres unmarked) [Compound 13, N^1,N^3-bis-(1-(-2-(3,4-dimethoxybenzylidene) hydrazinyl)-1-oxopropan-2-yl) isophthalamide]
- cytotoxic activity (in words, SAR) [1]: reduction in the activity

- melting point: 132 to 134 °C
SMILES: CC(NC(=O)c1cccc(C(=O)NC(C)c2n[nH]c(=S)o2)c1)c1n[nH]c(=S)o1 (centres unmarked) [Compound 7, N^1,N^3-bis (1-(5-thioxo-4,5-dihydro-1,3,4-oxadiazol-2-yl)ethyl) isophthalamide]
- inhibition at 100 µM [1]: 72.5 to 98.3%
- inhibition at 100 µM (MCF-7 cell line): 77.5%

- melting point: 285 to 287 °C
SMILES: CC(NC(=O)c1cccc(C(=O)NC(C)C(=O)NN=Cc2ccc(F)cc2)c1)C(=O)NN=Cc1ccc(F)cc1 (centres unmarked) [Compound 11, N^1,N^3-bis-(1-(-2-(4-fluorobenzylidene) hydrazinyl)-1-oxopropan-2-yl) isophthalamide]
- cytotoxic activity (in words, SAR) [1]: variable and noticeable increase in the cytotoxic activity

- melting point: 168 to 170 °C
SMILES: CC(NC(=O)c1cccc(C(=O)NC(C)C(=O)NN2C(=O)CSC2c2ccc(F)cc2)c1)C(=O)NN1C(=O)CSC1c1ccc(F)cc1 (centres unmarked) [Compound 15, N^1,N^3-bis-(1-(2-(4-fluorophenyl)-4-oxothiazolidin-3-ylamino)-1-oxopropan-2-yl) isophthalamide]

- melting point: 296 to 298 °C
SMILES: CC(NC(=O)c1cccc(C(=O)NC(C)C(=O)NN=Cc2ccc(Cl)cc2)c1)C(=O)NN=Cc1ccc(Cl)cc1 (centres unmarked) [Compound 10, N^1,N^3-bis-(1-(-2-(4-chlorobenzylidene) hydrazinyl)-1-oxopropan-2-yl) isophthalamide]
- cytotoxic activity (in words, SAR) [1]: variable and noticeable increase in the cytotoxic activity

- melting point: 273 to 275 °C
SMILES: COc1ccc(C=NNC(=O)C(C)NC(=O)c2cccc(C(=O)NC(C)C(=O)NN=Cc3ccc(OC)cc3)c2)cc1 (centres unmarked) [Compound 12, N^1,N^3-bis-(1-(-2-(4-methoxybenzylidene) hydrazinyl)-1-oxopropan-2-yl) isophthalamide]
- cytotoxic activity (in words, SAR) [1]: variable and noticeable increase in the cytotoxic activity
- inhibition at 100 µM [1]: 72.5 to 98.3%
- IC50 (MCF-7 cell line; MCF-7, MTT, 48-h incubation, read-out: IC50 (mean ± SD)): 51 nM

Continued, molecule first:

SMILES: CC(NC(=O)c1cccc(C(=O)NC(C)C(=O)N/N=C2/C(=O)Nc3ccccc32)c1)C(=O)N/N=C1\C(=O)Nc2ccccc21 (centres unmarked) [Compound 5, N^1-(1-oxo-1-(-2-(2-oxoindolin-3-ylidene) hydrazinyl)propan-2-yl)-N^3-(1-oxo-1-(-2-(2-oxoindolin-3-ylidene) hydrazinyl)propan-2-yl) isophthalamide]
- level of active CASP-7 (CASP-7): significant increase
- IC50 (HCT-116 cell line): 14 nM
- inhibition at 100 µM [1]: 72.5 to 98.3%
- BCL-2 expression level (BCL-2): down-expression
- effect on microtubule-polymer mass (tubulin polymerization, TubB) (tubulin beta (TUBb)): moderate effect
- IC50 (c-kit): 2850 ± 40 nM
- % inhibition (cytotoxicity on normal cells) [2]: 32.6%
- p53 expression level (p53): significant up-expression
- IC50 (CDK-2): 6240 ± 1210 nM
- melting point: 271 to 273 °C
- Bax/BCL-2 ratio (Bax): significant elevation; also recorded: significantly elevated
- Bax expression level (Bax; compared to control): significant up-expression
- IC50 (EGFR): 780 ± 1250 nM
- IC50 (VEGFR-2): 3170 ± 1000 nM
- % of DNA fragmentation (MCF-7 cells): remarkable % of DNA fragmentation

SMILES: CC(NC(=O)c1cccc(C(=O)NC(C)C(=O)NN=C2C(=O)Nc3ccc(Cl)cc32)c1)C(=O)NN=C1C(=O)Nc2ccc(Cl)cc21 (centres unmarked) [Compound 6, N^1-(1-(-2-(5-chloro-2-oxoindolin-3-ylidene)hydrazinyl)-1-oxopropan-2-yl)-N^3-(1-(-2-(5-chloro-2-oxoindolin-3-ylidene) hydrazinyl)-1-oxopropan-2-yl)isophthalamide]
- inhibition at 100 µM (HCT-116 cell line): 33.1%
- inhibition at 100 µM (A-549 cell line): 48.4%
- melting point: 271 to 273 °C
- inhibition at 100 µM (MCF-7 cell line): 19.6%

SMILES: COc1cccc2c1C(=O)c1c(O)c3c(c(O)c1C2=O)C[C@@](O)(C(=O)CO)C[C@@H]3O[C@H]1C[C@H](N)[C@H](O)[C@H](C)O1 [Doxorubicin, reference compound]
- IC50 (HCT-116 cell line): 65 nM

SMILES: CC(NC(=O)c1cccc(C(=O)NC(C)C(=O)NN)c1)C(=O)NN (centres unmarked) [Compound 4, N^1,N^3-bis-(1-hydrazinyl-1-oxopropan-2-yl) isophthalamide]
- inhibition at 100 µM (HCT-116 cell line): 2.3%
- inhibition at 100 µM (A-549 cell line): 0.9%
- melting point: 232 to 234 °C
- inhibition at 100 µM (MCF-7 cell line): 1.8%

SMILES: COc1ccc(C2SCC(=O)N2NC(=O)C(C)NC(=O)c2cccc(C(=O)NC(C)C(=O)NN3C(=O)CSC3c3ccc(OC)cc3)c2)cc1 (centres unmarked)
- melting point: 242 to 244 °C

SMILES: CC(NC(=O)c1cccc(C(=O)NC(C)C(=O)NN=C[C@@H](O)[C@H](O)[C@H](O)CO)c1)C(=O)NN=C[C@@H](O)[C@H](O)[C@H](O)CO (stereo partly drawn) [Compound 9, N^1,N^3-bis (1-oxo-1-(-2-((2R, 3S, 4R)-2,3,4,5-tetrahydroxypentylidene) hydrazinyl)propan-2-yl) isophthalamide]
- cytotoxic activity (in words, SAR) [1]: dramatic drop in the anticancer effect

SMILES: CC(NC(=O)c1cccc(C(=O)NC(C)C(=O)NN=C[C@H](O)[C@@H](O)[C@H](O)CO)c1)C(=O)NN=C[C@H](O)[C@@H](O)[C@H](O)CO (stereo partly drawn) [Compound 8, N^1,N^3-bis (1-oxo-1-(-2-((2S, 3 R, 4 R)-2,3,4,5-tetrahydroxypentylidene) hydrazinyl)propan-2-yl) isophthalamide]
- cytotoxic activity (in words, SAR) [1]: dramatic drop in the anticancer effect
